Assay results as given in patent US20250140406A1, “CLASSIFYING TUMORS AND PREDICTING RESPONSIVENESS” (Oncocyte Corporation, priority 2022, published 2025).
Like-named read-outs stand apart in the source and are kept apart here.

Key:
[1] = system: cancer cell lines, DetermaIO classes; experiment: Association of PRISM compound sensitivity with DetermaIO (DTIO) cell line classes; assay type: cell-based
[2] = system: cancer cell lines classified IM, MSL, M; experiment: PRISM screen compound sensitivity correlated with IM, MSL and M subtype of cell lines (101 gene signature); assay type: cell-based; conditions: for TNBCType train: 101 gene signature
[3] = correlation of PRISM compound sensitivity with DTIO, test cell set
[4] = correlation of PRISM compound sensitivity with DTIO, training cell set
[5] = correlation of PRISM compound sensitivity with IM subtype correlation, test cell set
[6] = correlation of PRISM compound sensitivity with M subtype correlation, test cell set
[7] = correlation of PRISM compound sensitivity with MSL subtype correlation, test cell set
[8] = subtype (IM, MSL or M) with which PRISM compound sensitivity is negatively correlated, training cell set
[9] = correlation of PRISM compound sensitivity with IM subtype correlation, test cell set (188 cell lines)
[10] = correlation of PRISM compound sensitivity with M subtype correlation, test cell set (188 cell lines)
[11] = correlation of PRISM compound sensitivity with MSL subtype correlation, test cell set (188 cell lines)
[12] = subtype (IM, MSL or M) with which compound sensitivity is negatively correlated, training cell set (371 cell lines)
[13] = correlation of PRISM compound sensitivity with DTIO (DetermaIO), test cell set (188 cell lines)
[14] = correlation of PRISM compound sensitivity with DTIO (DetermaIO), training cell set (371 cell lines)

CCN=C1N[C@@H]2[C@@H](O)[C@H](O)[C@@H](CO)O[C@@H]2S1 [thiamet-g]
DTIO Corr test [1, 3]: 0.003014
DTIO Corr train [1, 4]: 0.08206
IM Corr test [2, 5]: −0.00247
M Corr test [2, 6]: −0.01394
MSL Corr test [2, 7]: −0.01406
TNBCType train [2, 8]: MSL

O=C(NCc1ccccc1)c1csc(Nc2ccncn2)n1 [thiazovivin]
DTIO Corr test [1, 3]: 0.04845
DTIO Corr train [1, 4]: 0.03374
IM Corr test [2, 9]: 0.0391
M Corr test [2, 10]: −0.1082
MSL Corr test [2, 11]: −0.2135
TNBCType train [2, 12]: MSL

C[CH2][Hg][S]c1ccccc1C(=O)[O-].[Na+] [thiomersal]
DTIO Corr test [1, 13]: 0.0287
DTIO Corr train [1, 14]: −0.05708
DTIO Corr test ([1]; correlation of compound sensitivity with DTIO, test set): 0.0287
DTIO Corr train ([1]; correlation of compound sensitivity with DTIO, training set): −0.05708
IM Corr test [2, 9]: 0.1417
M Corr test [2, 10]: −0.2551
MSL Corr test [2, 11]: −0.1237

COc1cc(C[C@@H]2NCCc3cc(O)c(O)cc32)cc(OC)c1OC [trimethoquinol]
DTIO Corr test [1, 3]: −0.05537
DTIO Corr train [1, 4]: −0.0983
IM Corr test [2, 9]: −0.06802
M Corr test [2, 10]: −0.00108
MSL Corr test [2, 11]: −0.05303
TNBCType train [2, 12]: MSL

COc1cc2ncnc(Nc3cccc(Cl)c3)c2cc1OC [tyrphostin-AG-1478]
DTIO Corr test [1, 13]: 0.02894
DTIO Corr train [1, 14]: −0.0761
IM Corr test [2, 9]: −0.09525
M Corr test [2, 10]: 0.2259
MSL Corr test [2, 11]: 0.3434

CN[C@H]1CN(c2ccc3c(=O)c(C(=O)O)cn(-c4nccs4)c3n2)C[C@@H]1OC [voreloxin]
DTIO Corr test [1, 3]: 0.01495
DTIO Corr train [1, 4]: −0.04486
IM Corr test [2, 5]: 0.02919
M Corr test [2, 6]: −0.09678
MSL Corr test [2, 7]: −0.06474
TNBCType train [2, 8]: MSL

Cc1nn(C)c2c1C(c1cccc(Cl)c1)=NCCN2 [zometapine]
DTIO Corr test [1, 3]: −0.08271
DTIO Corr train [1, 4]: 0.09146
IM Corr test [2, 9]: −0.1347
M Corr test [2, 10]: 0.04602
MSL Corr test [2, 11]: −0.04215
TNBCType train [2, 12]: MSL

PF-477736
DTIO Corr test [1, 3]: −0.03209
DTIO Corr train [1, 4]: −0.01779
IM Corr test [2, 9]: 0.05795
M Corr test [2, 10]: −0.1644
MSL Corr test [2, 11]: −0.1066

Ro-25-6981
DTIO Corr test [1, 3]: −0.1247
DTIO Corr train [1, 4]: −0.07012
IM Corr test [2, 5]: −0.1513
M Corr test [2, 6]: 0.04707
MSL Corr test [2, 7]: −0.0147

iodoquinol
DTIO Corr test [1, 13]: 0.03163
DTIO Corr train [1, 14]: −0.06766
IM Corr test [2, 9]: 0.03942
M Corr test [2, 10]: −0.09894
MSL Corr test [2, 11]: −0.104
TNBCType train ([2]; subtype (IM, MSL or M) assigned to the compound by negative correlation of PRISM sensitivity with subtype, training cell set (371 cell lines)): MSL

repsox
DTIO Corr test [1]: −0.03254
DTIO Corr train [1]: −0.05665
IM Corr test [2]: −0.07924
M Corr test [2]: 0.1062
MSL Corr test [2]: 0.08697

salvianolic-acid-B
DTIO Corr test [1, 3]: 0.002256
DTIO Corr train [1, 4]: −0.1092
IM Corr test [2, 9]: 0.001211
M Corr test [2, 10]: −0.08646
MSL Corr test [2, 11]: −0.06128
TNBCType train [2, 12]: MSL
